Assay: Attempted conversion of polymorph (II) to polymorph (I) by heating in water
Type: physicochemical
Conditions: 18 days at 90-100° C.
Excerpt: An attempt was made to convert polymorph (II) to polymorph (I) by heating in water for an extended period of time.

- conversion of polymorph (II) to polymorph (I) (polymorph stability): No evidence of conversion
SMILES: O=C([O-])[O-].[La+3].[OH-] [polymorph (II), lanthanum hydroxycarbonate]
